The results in this text go back to patent US20150191469A1, “COMPOUNDS AND METHODS FOR TREATING HIV” (priority 2012, published 2015).

pIC50: −log10 of the molar value.

This experiment concerns HIV. The experiment in a line: MT4 assay: antiviral HIV activity (cell protection, cell titer glo readout at 96 hours). The format is cell-based. The following applies: Human immunodeficiency virus 1, MT4, 96 h, MT4 cells, cell titer glo readout at 96 hours, 10 point dose response; read-out: HIV MT4 Assay IC50. In a few lines: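 MT-4 cells infected with HIV, with inhibition readout by CellTiter-Glo luminescence at 96 h relative to no-compound control. Cytotoxicity measured in parallel under the same conditions. IC50 from a 10-point, 3-4-fold dilution series spanning >1000-fold, fitted with a four-parameter logistic equation.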
In the case of `Cc1nc2c(cc(C(=O)NCCN3CCCC3=O)n2C)c(-c2cc(F)c3c(c2C)CCCO3)c1[C@H](OC(C)(C)C)C(=O)O` [Example 248], the negative logarithm of the IC50 (pIC50) is 5.52.

Regarding `Cc1nc2c(cc(C(=O)NC3CCCCC3)n2C)c(-c2cc(F)c3c(c2C)CCCO3)c1[C@H](OC(C)(C)C)C(=O)O` [Example 249], the negative logarithm of the IC50 (pIC50) was 7.92.

As to `Cc1nc2c(cc(C(=O)N3CCCC3)n2C)c(-c2cc(F)c3c(c2C)CCCO3)c1[C@H](OC(C)(C)C)C(=O)O` [Example 250], the pIC50 was 7.40.

For `Cc1nc2c(cc(C(=O)N3CCCCC3)n2C)c(-c2cc(F)c3c(c2C)CCCO3)c1[C@H](OC(C)(C)C)C(=O)O` [Example 251], the negative logarithm of the IC50 (pIC50) is 7.55.

As to `COCCCNC(=O)c1cc2c(-c3cc(F)c4c(c3C)CCCO4)c([C@H](OC(C)(C)C)C(=O)O)c(C)nc2n1C` [Example 252], the pIC50 was 7.19.

For `Cc1nc2c(cc(C(=O)NCc3c(Cl)cccc3Cl)n2C)c(-c2cc(F)c3c(c2C)CCCO3)c1[C@H](OC(C)(C)C)C(=O)O` [Example 253], the negative logarithm of the IC50 (pIC50) is 8.72.

In the case of `Cc1nc2c(cc(C(=O)NCc3c(F)cccc3F)n2C)c(-c2cc(F)c3c(c2C)CCCO3)c1[C@H](OC(C)(C)C)C(=O)O` [Example 254], the pIC50 is 8.42.

With `Cc1nc2c(cc(C(=O)NCc3cccc(Cl)c3)n2C)c(-c2cc(F)c3c(c2C)CCCO3)c1[C@H](OC(C)(C)C)C(=O)O` [Example 255], the negative-log IC50 (pIC50) was 8.42.

For the compound `Cc1nc2c(cc(C(=O)N(C)C3CCCCC3)n2C)c(-c2cc(F)c3c(c2C)CCCO3)c1[C@H](OC(C)(C)C)C(=O)O` [Example 256], the pIC50 is 7.46.

As for `Cc1nc2c(cc(C(=O)NCc3c(F)cccc3Cl)n2C)c(-c2cc(F)c3c(c2C)CCCO3)c1[C@H](OC(C)(C)C)C(=O)O` [Example 257], the negative-log IC50 (pIC50) is 8.70.

Consider `Cc1nc2c(cc(C(=O)N3CCC(C)(C)CC3)n2C)c(-c2cc(F)c3c(c2C)CCCO3)c1[C@H](OC(C)(C)C)C(=O)O` [Example 258], for which the pIC50 was 7.50.

Take `Cc1nc2c(cc(C(=O)NCCC3CCCCC3)n2C)c(-c2cc(F)c3c(c2C)CCCO3)c1[C@H](OC(C)(C)C)C(=O)O` [Example 259]: the pIC50 is 8.72.

`Cc1nc2c(cc(C(=O)NCc3ccc4c(c3)OCO4)n2C)c(-c2cc(F)c3c(c2C)CCCO3)c1[C@H](OC(C)(C)C)C(=O)O` [Example 260]: the negative-log IC50 (pIC50) was 8.72.

`CCN(C(=O)c1cc2c(-c3cc(F)c4c(c3C)CCCO4)c([C@H](OC(C)(C)C)C(=O)O)c(C)nc2n1C)C1CCCCC1` [Example 261]: the pIC50 was 7.33.

Consider `Cc1nc2c(cc(C(=O)NCCc3cccnc3)n2C)c(-c2cc(F)c3c(c2C)CCCO3)c1[C@H](OC(C)(C)C)C(=O)O` [Example 262], for which the pIC50 was 6.99.

As to `Cc1nc2c(cc(C(=O)NCc3ccc(Cl)cc3)n2C)c(-c2cc(F)c3c(c2C)CCCO3)c1[C@H](OC(C)(C)C)C(=O)O` [Example 263], the pIC50 is 8.51.

Turning to `Cc1nc2c(cc(C(=O)NCC3COC3)n2C)c(-c2cc(F)c3c(c2C)CCCO3)c1[C@H](OC(C)(C)C)C(=O)O` [Example 264], the negative-log IC50 (pIC50) is 6.34.

As for `Cc1nc2c(cc(C(=O)NCc3cccc(F)c3)n2C)c(-c2cc(F)c3c(c2C)CCCO3)c1[C@H](OC(C)(C)C)C(=O)O` [Example 265], the negative-log IC50 (pIC50) was 8.32.

Turning to `Cc1nc2c(cc(C(=O)NCc3cccnc3)n2C)c(-c2cc(F)c3c(c2C)CCCO3)c1[C@H](OC(C)(C)C)C(=O)O` [Example 266], the negative logarithm of the IC50 (pIC50) is 6.84.

Take `Cc1nc2c(cc(C(=O)NCc3ccccn3)n2C)c(-c2cc(F)c3c(c2C)CCCO3)c1[C@H](OC(C)(C)C)C(=O)O` [Example 267]: the pIC50 was 7.58.

As to `Cc1nc2c(cc(C(=O)NCCC(C)C)n2C)c(-c2cc(F)c3c(c2C)CCCO3)c1[C@H](OC(C)(C)C)C(=O)O` [Example 268], the negative-log IC50 (pIC50) was 8.47.

With `COCCN(CCOC)C(=O)c1cc2c(-c3cc(F)c4c(c3C)CCCO4)c([C@H](OC(C)(C)C)C(=O)O)c(C)nc2n1C` [Example 269], the pIC50 is 7.09.

On to `Cc1nc2c(cc(C(=O)N(C)C)n2C)c(-c2cc(F)c3c(c2C)CCCO3)c1[C@H](OC(C)(C)C)C(=O)O` [Example 270], for which the negative-log IC50 (pIC50) was 6.95.

Regarding `Cc1nc2c(cc(C(=O)NC3Cc4ccccc4C3)n2C)c(-c2cc(F)c3c(c2C)CCCO3)c1[C@H](OC(C)(C)C)C(=O)O` [Example 271], the pIC50 is 8.80.

Take `Cc1nc2c(cc(C(=O)NCCN3CCCCC3)n2C)c(-c2cc(F)c3c(c2C)CCCO3)c1[C@H](OC(C)(C)C)C(=O)O` [Example 272]: the pIC50 was 6.53.

For the compound `Cc1nc2c(cc(C(=O)NCCCN3CCCC3=O)n2C)c(-c2cc(F)c3c(c2C)CCCO3)c1[C@H](OC(C)(C)C)C(=O)O` [Example 273], the negative-log IC50 (pIC50) is 6.03.

For the compound `Cc1nc2c(cc(C(=O)NCc3ccncc3)n2C)c(-c2cc(F)c3c(c2C)CCCO3)c1[C@H](OC(C)(C)C)C(=O)O` [Example 274], the pIC50 was 6.68.

With `Cc1nc2c(cc(C(=O)NCCN3CCCC3)n2C)c(-c2cc(F)c3c(c2C)CCCO3)c1[C@H](OC(C)(C)C)C(=O)O` [Example 275], the negative-log IC50 (pIC50) was 6.00.

As for `Cc1nc2c(cc(C(=O)NCC3CCC3)n2C)c(-c2cc(F)c3c(c2C)CCCO3)c1[C@H](OC(C)(C)C)C(=O)O` [Example 276], the pIC50 was 8.00.

Consider `Cc1nc2c(cc(C(=O)N3CCN(C(C)C)CC3)n2C)c(-c2cc(F)c3c(c2C)CCCO3)c1[C@H](OC(C)(C)C)C(=O)O` [Example 277], for which the pIC50 was 7.00.

Regarding `Cc1nc2c(cc(C(=O)N3CCC(N4CCCCC4)CC3)n2C)c(-c2cc(F)c3c(c2C)CCCO3)c1[C@H](OC(C)(C)C)C(=O)O` [Example 278], the pIC50 is 6.96.

In the case of `COC(C)(C)CCNC(=O)c1cc2c(-c3cc(F)c4c(c3C)CCCO4)c([C@H](OC(C)(C)C)C(=O)O)c(C)nc2n1C` [Example 279], the negative logarithm of the IC50 (pIC50) was 8.00.

On to `Cc1nc2c(cc(C3CCC(C)(C)CC3)n2C)c(-c2cc(F)c3c(c2C)CCCO3)c1[C@H](OC(C)(C)C)C(=O)O` [Example 283], for which the negative logarithm of the IC50 (pIC50) was 6.40.

As to `Cc1nc2c(cc(CCc3ccnc4ccccc34)n2C)c(-c2cc(F)c3c(c2C)CCCO3)c1[C@H](OC(C)(C)C)C(=O)O` [Example 284], the pIC50 is 7.80.

`Cc1nc2c(cc(CCc3ccncc3)n2C)c(-c2cc(F)c3c(c2C)CCCO3)c1[C@H](OC(C)(C)C)C(=O)O` [Example 285]: the pIC50 was 7.33.

In the case of `Cc1nc2c(cc(CCc3ccc4cnn(C)c4c3)n2C)c(-c2cc(F)c3c(c2C)CCCO3)c1[C@H](OC(C)(C)C)C(=O)O` [Example 286], the pIC50 is 7.82.

On to `Cc1nc2c(cc(CN3CCCN(C4COC4)CC3)n2C)c(-c2cc(F)c3c(c2C)CCCO3)c1[C@H](OC(C)(C)C)C(=O)O` [Example 289], for which the pIC50 was 6.77.

For `COC[C@H]1CCCN1Cc1cc2c(-c3cc(F)c4c(c3C)CCCO4)c([C@H](OC(C)(C)C)C(=O)O)c(C)nc2n1C` [Example 290], the pIC50 is 7.32.

Regarding `Cc1nc2c(cc(CN3CCc4ccc(N5CCCCC5)cc4C3)n2C)c(-c2cc(F)c3c(c2C)CCCO3)c1[C@H](OC(C)(C)C)C(=O)O` [Example 291], the negative-log IC50 (pIC50) is 7.35.

For the compound `Cc1nc2c(cc(CN3CCC[C@H]3C(=O)Nc3ccc4c(cnn4C)c3)n2C)c(-c2cc(F)c3c(c2C)CCCO3)c1[C@H](OC(C)(C)C)C(=O)O` [Example 292], the pIC50 was 7.38.

For the compound `Cc1nc2c(cc(CN3CC[C@@H](NC(=O)c4ccc5c(cnn5C)c4)C3)n2C)c(-c2cc(F)c3c(c2C)CCCO3)c1[C@H](OC(C)(C)C)C(=O)O` [Example 293], the pIC50 is 7.35.

For the compound `Cc1nc2c(cc(CN3CCC[C@H](NC(=O)c4ccc5c(cnn5C)c4)C3)n2C)c(-c2cc(F)c3c(c2C)CCCO3)c1[C@H](OC(C)(C)C)C(=O)O` [Example 294], the pIC50 was 7.41.

For `Cc1nc2c(cc(CN3CCC[C@@H]3CO)n2C)c(-c2cc(F)c3c(c2C)CCCO3)c1[C@H](OC(C)(C)C)C(=O)O` [Example 295], the pIC50 is 7.29.

`Cc1nc2c(cc(CN(C)C(=O)c3ccc4c(cnn4C)c3)n2C)c(-c2cc(F)c3c(c2C)CCCO3)c1[C@H](OC(C)(C)C)C(=O)O` [Example 296]: the pIC50 is 7.55.

In the case of `Cc1nc2c(cc(CCC(=O)Nc3ccc4c(cnn4C)c3)n2C)c(-c2cc(F)c3c(c2C)CCCO3)c1[C@H](OC(C)(C)C)C(=O)O` [Example 298], the negative logarithm of the IC50 (pIC50) was 6.59.

For `Cc1nc2c(cc(CCC(=O)N(C)c3ccc4c(cnn4C)c3)n2C)c(-c2cc(F)c3c(c2C)CCCO3)c1[C@H](OC(C)(C)C)C(=O)O` [Example 299], the pIC50 is 7.41.

For `Cc1nc2c(cc(-c3nnc(N4CCC(C)CC4)o3)n2C)c(-c2cc(F)c3c(c2C)CCCO3)c1[C@H](OC(C)(C)C)C(=O)O` [Example 301], the pIC50 was 8.41.

Regarding `Cc1nc2c(cc(-c3nnc(N4CCCN(C5COC5)CC4)o3)n2C)c(-c2cc(F)c3c(c2C)CCCO3)c1[C@H](OC(C)(C)C)C(=O)O` [Example 302], the pIC50 is 7.35.

Consider `COC1CCN(c2nnc(-c3cc4c(-c5cc(F)c6c(c5C)CCCO6)c([C@H](OC(C)(C)C)C(=O)O)c(C)nc4n3C)o2)CC1` [Example 303], for which the pIC50 was 8.41.

Regarding `Cc1nc2c(cc(-c3nnc(NCC4CCOCC4)o3)n2C)c(-c2cc(F)c3c(c2C)CCCO3)c1[C@H](OC(C)(C)C)C(=O)O` [Example 304], the pIC50 was 7.39.

In the case of `Cc1nc2c(cc(-c3nnc(N(C)CCN4CCCC4)o3)n2C)c(-c2cc(F)c3c(c2C)CCCO3)c1[C@H](OC(C)(C)C)C(=O)O` [Example 305], the pIC50 was 7.35.

As for `Cc1nc2c(cc(-c3nnc(N4CCCN(C)CC4)o3)n2C)c(-c2cc(F)c3c(c2C)CCCO3)c1[C@H](OC(C)(C)C)C(=O)O` [Example 306], the pIC50 is 7.29.

For `COCCN(C)c1nnc(-c2cc3c(-c4cc(F)c5c(c4C)CCCO5)c([C@H](OC(C)(C)C)C(=O)O)c(C)nc3n2C)o1` [Example 307], the negative-log IC50 (pIC50) is 7.91.

`Cc1nc2c(cc(-c3nnc(N(C)C)o3)n2C)c(-c2cc(F)c3c(c2C)CCCO3)c1[C@H](OC(C)(C)C)C(=O)O` [Example 308]: the pIC50 is 7.85.

As a reminder, the pIC50 is the negative decadic logarithm of the IC50, by convention in mol/L.
